Common to all, as to experiment: Radiometric protein kinase assay (33PanQinase), Assay Condition A (thiol containing)
Common to all, as to format: biochemical

One assay has as its target CDK12 wt/CycK (Homo sapiens (Human), UniProt Q9NYV4). As to conditions: thiol containing (1.2 mM DTT), ATP 0.3 μM. On the procedure:
(§1) The IC50 profile of test compounds was determined using three protein kinases.
(§2) The compounds were provided as pre-weighed powders in vials. The compounds were dissolved to 1×10^−02M by adding DMSO. 100 μl of each of the resulting stock solutions were transferred into column 2 of four 96 well “master plates”.
(§3) Prior to testing, the 1×10^−02M stock solutions in column 2 of the master plates were subjected to a serial, semi-logarithmic dilution using 100% DMSO as a solvent. […] Column 1 and 7 were filled with 100% DMSO as controls. Subsequently, 2×10 μl from each well of the serial diluted copy plates were aliquoted with a 96 channel pipettor into two identical sets of “compound dilution plates”.
(§4) In the process, 90 μl H2O were added to each well of a set of compound dilution plates. To minimize potential precipitation, the H2O was added to each plate only a few minutes before the transfer of the compound solutions into the assay plates. Each plate was shaken thoroughly, resulting in a “compound dilution plate/10% DMSO”.
(§5) For the assays, 5 μl solution from each well of the compound dilution plates/10% DMSO were transferred into the assay plates. The final volume of the assay was 50 μl. All compounds were tested at 10 final assay concentrations in the range from 1×10^−04M to 3×10^−09M, in singlicate. The final DMSO concentration in the reaction cocktails was 1% in all cases.
(§6) All protein kinases were expressed in Sf9 insect cells or in E. coli as recombinant GST-fusion proteins or His-tagged proteins, either as full-length or enzymatically active fragments. All kinases were produced from human cDNAs and purified by either GSH-affinity chromatography or immobilized metal. Affinity tags were removed from a number of kinases during purification. The purity of the protein kinases was examined by SDS-PAGE/Coomassie staining, the identity was checked by mass spectroscopy.
(§7) A radiometric protein kinase assay (^33PanQinase® Activity Assay) was used for measuring the kinase activity of the three protein kinases. All kinase assays were performed in 96-well FlashPlates™ from PerkinElmer (Boston, Mass., USA) in a 50 μl reaction volume. The reaction cocktail was pipetted in four steps in the following order: • 20 μl of assay buffer (standard buffer) • 5 μl of ATP solution (in H2O) • 5 μl of test compound (in 10% DMSO) • 20 μl enzyme/substrate mix
(§8) The reaction cocktails were incubated at 30° C. for 60 minutes. The reaction was stopped with 50 μl of 2% (v/v) H3PO4, plates were aspirated and washed two times with 200 μl 0.9% (w/v) NaCl. Incorporation of ^33Pi was determined with a microplate scintillation counter (Microbeta, Wallac). All assays were performed with a BeckmanCoulter/SAGIAN™ Core System.
(§9) The median value of the counts in column 1 (n=8) of each assay plate was defined as “low control”. This value reflects unspecific binding of radioactivity to the plate in the absence of a protein kinase but in the presence of the substrate. The median value of the counts in column 7 of each assay plate (n=8) was taken as the “high control”, i.e. full activity in the absence of any inhibitor. The difference between high and low control was taken as 100% activity.
(§10) As part of the data evaluation the low control value from a particular plate was subtracted from the high control value as well as from all 80 “compound values” of the corresponding plate. The residual activity (in %) for each well of a particular plate was calculated by using the following formula: Res. Activity (%)=100×[(cpm of compound−low control)/(high control−low control)]
(§11) The residual activities for each concentration and the compound IC50 values were calculated using Quattro Workflow V3.1.1 (Quattro Research GmbH, Munich, Germany). […] The fitting method used was a least-squares fit.

A further assay concerns the target CDK2/CycA2 (Homo sapiens (Human), UniProt P24941). As to conditions: thiol containing (1.2 mM DTT), ATP 0.3 μM. Here is the method: as §1, §2, §3, §4, §5, §6, §7, §8, §9, §10, §11
A further assay addresses CDK7/CycH/MAT1 (Homo sapiens (Human), UniProt P50613). As to conditions: thiol containing (1.2 mM DTT), ATP 3.0 μM. On the procedure:
as §1, §2, §3, §4, §5, §6, §7, §8, §9, §10, §11

Some results are limits rather than exact numbers.

CDK7/CycH/MAT1, sequence (P50613 whole entry): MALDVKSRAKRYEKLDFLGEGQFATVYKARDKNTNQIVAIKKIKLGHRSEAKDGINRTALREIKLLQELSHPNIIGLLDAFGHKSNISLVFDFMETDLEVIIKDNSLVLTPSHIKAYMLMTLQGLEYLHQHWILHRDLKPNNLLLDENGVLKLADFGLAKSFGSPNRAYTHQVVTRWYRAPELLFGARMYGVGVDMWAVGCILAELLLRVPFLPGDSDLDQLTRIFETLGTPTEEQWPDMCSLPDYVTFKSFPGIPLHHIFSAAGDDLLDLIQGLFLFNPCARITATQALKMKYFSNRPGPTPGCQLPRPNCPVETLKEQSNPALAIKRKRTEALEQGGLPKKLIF
CDK7/CycH/MAT1, sequence (P51946 whole entry partner): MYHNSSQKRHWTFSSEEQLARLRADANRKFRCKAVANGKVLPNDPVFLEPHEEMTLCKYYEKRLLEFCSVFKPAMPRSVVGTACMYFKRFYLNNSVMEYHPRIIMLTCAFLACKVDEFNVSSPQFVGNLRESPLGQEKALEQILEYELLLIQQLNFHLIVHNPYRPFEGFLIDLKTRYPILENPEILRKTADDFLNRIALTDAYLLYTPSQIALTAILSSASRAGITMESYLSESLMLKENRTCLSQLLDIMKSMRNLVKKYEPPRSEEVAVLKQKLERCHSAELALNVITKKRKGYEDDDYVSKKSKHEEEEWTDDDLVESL
CDK7/CycH/MAT1, sequence (P51948 whole entry partner): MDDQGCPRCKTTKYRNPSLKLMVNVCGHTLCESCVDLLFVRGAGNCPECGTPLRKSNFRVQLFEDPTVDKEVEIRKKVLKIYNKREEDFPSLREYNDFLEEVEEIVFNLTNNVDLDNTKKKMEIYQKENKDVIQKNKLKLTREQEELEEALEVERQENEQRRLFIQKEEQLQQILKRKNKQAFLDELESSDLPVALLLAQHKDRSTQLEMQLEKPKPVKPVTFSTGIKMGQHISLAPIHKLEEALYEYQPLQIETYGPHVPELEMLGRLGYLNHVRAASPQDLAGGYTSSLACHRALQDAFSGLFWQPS
CDK12 wt/CycK, sequence (Q9NYV4 whole entry): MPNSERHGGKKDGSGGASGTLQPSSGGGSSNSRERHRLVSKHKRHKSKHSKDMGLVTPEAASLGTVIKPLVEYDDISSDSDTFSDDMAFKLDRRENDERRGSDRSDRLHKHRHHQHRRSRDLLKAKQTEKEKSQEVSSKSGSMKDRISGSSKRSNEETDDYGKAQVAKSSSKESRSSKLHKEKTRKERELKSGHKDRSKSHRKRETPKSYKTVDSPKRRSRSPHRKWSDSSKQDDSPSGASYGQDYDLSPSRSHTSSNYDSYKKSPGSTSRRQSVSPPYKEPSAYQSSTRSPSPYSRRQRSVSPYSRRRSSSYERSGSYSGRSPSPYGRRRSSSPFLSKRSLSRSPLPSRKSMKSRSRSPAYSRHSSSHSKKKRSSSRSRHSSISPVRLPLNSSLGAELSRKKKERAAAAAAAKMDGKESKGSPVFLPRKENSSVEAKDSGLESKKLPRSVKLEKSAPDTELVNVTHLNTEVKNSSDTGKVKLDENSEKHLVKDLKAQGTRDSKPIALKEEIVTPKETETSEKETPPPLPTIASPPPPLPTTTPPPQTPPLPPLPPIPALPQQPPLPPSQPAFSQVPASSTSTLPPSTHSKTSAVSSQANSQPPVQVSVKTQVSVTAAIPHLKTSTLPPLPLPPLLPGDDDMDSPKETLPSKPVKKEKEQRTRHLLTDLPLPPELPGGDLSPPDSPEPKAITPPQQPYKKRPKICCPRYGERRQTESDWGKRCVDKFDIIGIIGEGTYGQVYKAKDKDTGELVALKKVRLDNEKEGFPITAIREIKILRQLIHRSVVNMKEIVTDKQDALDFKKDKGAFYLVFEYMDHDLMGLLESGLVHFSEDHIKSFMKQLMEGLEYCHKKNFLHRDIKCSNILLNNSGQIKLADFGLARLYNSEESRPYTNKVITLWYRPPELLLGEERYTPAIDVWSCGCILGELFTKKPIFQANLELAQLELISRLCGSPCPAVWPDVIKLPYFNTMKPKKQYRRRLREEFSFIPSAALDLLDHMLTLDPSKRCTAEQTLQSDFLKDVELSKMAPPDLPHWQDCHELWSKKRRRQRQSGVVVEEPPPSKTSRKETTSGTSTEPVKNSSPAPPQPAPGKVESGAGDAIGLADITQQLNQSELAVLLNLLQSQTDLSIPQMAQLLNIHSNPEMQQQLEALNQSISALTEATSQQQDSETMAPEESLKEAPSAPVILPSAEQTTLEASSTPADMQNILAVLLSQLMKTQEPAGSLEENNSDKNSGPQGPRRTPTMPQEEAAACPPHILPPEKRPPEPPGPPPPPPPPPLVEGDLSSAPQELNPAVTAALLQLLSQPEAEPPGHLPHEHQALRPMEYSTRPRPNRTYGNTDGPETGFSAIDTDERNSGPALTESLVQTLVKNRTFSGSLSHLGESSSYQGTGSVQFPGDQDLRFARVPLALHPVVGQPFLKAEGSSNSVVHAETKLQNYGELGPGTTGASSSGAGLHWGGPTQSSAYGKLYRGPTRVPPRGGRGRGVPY
CDK12 wt/CycK, sequence (O75909 whole entry partner): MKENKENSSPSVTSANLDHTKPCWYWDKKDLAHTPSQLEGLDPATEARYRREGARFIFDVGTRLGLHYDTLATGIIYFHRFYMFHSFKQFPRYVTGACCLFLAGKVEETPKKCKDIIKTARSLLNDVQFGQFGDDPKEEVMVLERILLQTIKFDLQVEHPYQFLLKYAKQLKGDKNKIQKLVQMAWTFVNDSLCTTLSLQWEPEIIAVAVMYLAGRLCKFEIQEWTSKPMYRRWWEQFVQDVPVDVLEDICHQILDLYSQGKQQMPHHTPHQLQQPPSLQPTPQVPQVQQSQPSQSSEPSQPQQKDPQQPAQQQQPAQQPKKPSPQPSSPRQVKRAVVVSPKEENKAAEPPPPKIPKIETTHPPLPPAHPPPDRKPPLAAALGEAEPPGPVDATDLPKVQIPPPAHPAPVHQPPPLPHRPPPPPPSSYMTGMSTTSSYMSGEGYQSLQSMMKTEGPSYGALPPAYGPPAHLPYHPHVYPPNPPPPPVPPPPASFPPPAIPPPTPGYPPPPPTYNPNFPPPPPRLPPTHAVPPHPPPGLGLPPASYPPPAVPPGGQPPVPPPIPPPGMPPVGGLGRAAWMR

With `C=CC(=O)Nc1ccc(C(=O)N2CCC[C@@H](Nc3ncc4ccccc4n3)C2)cc1` [Example 1, (R)-N-(4-(3-(quinazolin-2-ylamino)piperidine-1-carbonyl)phenyl)acrylamide], the concentration for half-maximal inhibition (IC50) against CDK12 wt/CycK lay within 1 to 10 µM.
`C=CC(=O)Nc1ccc(C(=O)N2CCC[C@@H](Nc3cc4ccccc4cn3)C2)cc1` [Example 2, (R)-N-(4-(3-(isoquinolin-3-ylamino)piperidine-1-carbonyl)phenyl)acrylamide]: the IC50 against CDK12 wt/CycK is 1 to 10 µM; against CDK2/CycA2, 30 to 100 µM; against CDK7/CycH/MAT1, 30 to 100 µM.
With `C=CC(=O)Nc1ccc(C(=O)N2CCC[C@@H](Nc3ncc4cc(Cl)ccc4n3)C2)cc1` [Example 3, (R)-N-(4-(3-((6-chloroquinazolin-2-yl)amino)piperidine-1-carbonyl)phenyl)acrylamide], the 50% inhibitory concentration (IC50) against CDK12 wt/CycK was 1 to 10 µM; at CDK2/CycA2, 30 to 100 µM; against CDK7/CycH/MAT1, 30 to 100 µM.
For `C=CC(=O)Nc1ccc(C(=O)N2CCC[C@@H](Nc3ncc4cc(F)ccc4n3)C2)cc1` [Example 4, (R)-N-(4-(3-((6-fluoroquinazolin-2-yl)amino)piperidine-1-carbonyl)phenyl)acrylamide], the figures for the IC50 at CDK12 wt/CycK, against CDK2/CycA2 and on CDK7/CycH/MAT1 were 1 to 10 µM, 30 to 100 µM and 30 to 100 µM, respectively.
Consider `C=CC(=O)Nc1ccc(C(=O)N2CCC[C@@H](Nc3ncc4ccc(F)cc4n3)C2)cc1` [Example 5, (R)-N-(4-(3-((7-fluoroquinazolin-2-yl)amino)piperidine-1-carbonyl)phenyl)acrylamide], for which the results for the IC50 at CDK12 wt/CycK, at CDK2/CycA2 and on CDK7/CycH/MAT1 were 1 to 10 µM, 30 to 100 µM and 30 to 100 µM, respectively.
As to `C=CC(=O)Nc1ccc(C(=O)N2CCC[C@@H](Nc3ncc4ccc(OC)cc4n3)C2)cc1` [Example 6, (R)-N-(4-(3-((7-methoxyquinazolin-2-yl)amino)piperidine-1-carbonyl)phenyl)acrylamide], the IC50 lay in the range of 10 to 30 µM on CDK12 wt/CycK, 30 to 100 µM against CDK2/CycA2 and 30 to 100 µM at CDK7/CycH/MAT1.
For `C=CC(=O)Nc1ccc(C(=O)N2CCC[C@@H](Nc3ncc4cc(OC)ccc4n3)C2)cc1` [Example 7, (R)-N-(4-(3-((6-methoxyquinazolin-2-yl)amino)piperidine-1-carbonyl)phenyl)acrylamide], the IC50 against CDK12 wt/CycK, against CDK2/CycA2 and against CDK7/CycH/MAT1 was 30 to 100 µM throughout.
For `C=CC(=O)Nc1ccc(C(=O)N2CCC[C@@H](Nc3ncc4cc(C)ccc4n3)C2)cc1` [Example 8, (R)-N-(4-(3-((6-methylquinazolin-2-yl)amino)piperidine-1-carbonyl)phenyl)acrylamide], the 50% inhibitory concentration (IC50) at CDK12 wt/CycK lay in the range of 10 to 30 µM; against CDK2/CycA2 it was 30 to 100 µM; at CDK7/CycH/MAT1, 30 to 100 µM.
In the case of `C=CC(=O)Nc1ccc(C(=O)N2CCC[C@@H](Nc3ncc4ccc(C)cc4n3)C2)cc1` [Example 9, (R)-N-(4-(3-((7-methylquinazolin-2-yl)amino)piperidine-1-carbonyl)phenyl)acrylamide], the IC50 fell in the range of 10 to 30 µM against CDK12 wt/CycK, 30 to 100 µM on CDK2/CycA2 and 30 to 100 µM against CDK7/CycH/MAT1.
As for `C=CC(=O)Nc1ccc(C(=O)N2CCC[C@@H](Nc3ncc4ccc(Cl)cc4n3)C2)cc1` [Example 10, (R)-N-(4-(3-((7-chloroquinazolin-2-yl)amino)piperidine-1-carbonyl)phenyl)acrylamide], the IC50 at CDK12 wt/CycK lay within 1 to 10 µM; against CDK2/CycA2 it was 30 to 100 µM; on CDK7/CycH/MAT1 it was 30 to 100 µM.
Consider `C=CC(=O)Nc1ccc(C(=O)N2CCC[C@@H](Nc3ncc4ccc(S(C)(=O)=O)cc4n3)C2)cc1` [Example 11, (R)-N-(4-(3-((7-(methylsulfonyl)quinazolin-2-yl)amino)piperidine-1-carbonyl)phenyl)acrylamide], for which the results for the IC50 against CDK12 wt/CycK, at CDK2/CycA2 and against CDK7/CycH/MAT1 were 1 to 10 µM, 10 to 30 µM and 30 to 100 µM, respectively.
On the same counts, the results for `C=CC(=O)Nc1ccc(C(=O)N2CCC[C@@H](Nc3ncc4ccc(C(N)=O)cc4n3)C2)cc1` [Example 13, (R)-2-((1-(4-acrylamidobenzoyl)piperidin-3-yl)amino)quinazoline-7-carboxamide] are 0.1 to 1 µM, 1 to 10 µM and 10 to 30 µM.
As to `C=CC(=O)Nc1ccc(C(=O)N2CCC[C@@H](Nc3ncc4ccc(C(=O)O)cc4n3)C2)cc1` [Example 14, (R)-2-((1-(4-acrylamidobenzoyl)piperidin-3-yl)amino)quinazoline-7-carboxylic acid], the IC50 lay in the range of 0.1 to 1 µM on CDK12 wt/CycK, 1 to 10 µM at CDK2/CycA2 and 10 to 30 µM against CDK7/CycH/MAT1.
On the same counts, the results for `C=CC(=O)Nc1ccc(C(=O)N2CCC[C@@H](Nc3ncc4ccc(=O)n(C(C)C)c4n3)C2)cc1` [Example 15, (R)-N-(4-(3-((8-isopropyl-7-oxo-7,8-dihydropyrido[2,3-d]pyrimidin-2-yl)amino)piperidine-1-carbonyl)phenyl)acrylamide] are 1 to 10 µM, 10 to 30 µM and 30 to 100 µM.
As for `C=CC(=O)Nc1ccc(C(=O)N2CCC[C@@H](Nc3ncc4ccc(=O)[nH]c4n3)C2)cc1` [Example 16, (R)-N-(4-(3-((7-oxo-7,8-dihydropyrido[2,3-d]pyrimidin-2-yl)amino)piperidine-1-carbonyl)phenyl)acrylamide], the IC50 on CDK12 wt/CycK is 10 to 30 µM; against CDK2/CycA2, 30 to 100 µM; against CDK7/CycH/MAT1, 30 to 100 µM.
`C=CC(=O)Nc1ccc(C(=O)N2CC[C@@H](Nc3ncc4ccc(C(=O)NC)cc4n3)C2)cc1` [Example 58, (R)-2-((1-(4-acrylamidobenzoyl)pyrrolidin-3-yl)amino)-N-methylquinazoline-7-carboxamide] gave an IC50 against CDK7/CycH/MAT1 of 0.1 to 1 µM.
Still for that read-out and setting: to `C=CC(=O)Nc1ccc(C(=O)N2CC[C@@H](Nc3ncc4ccccc4n3)C2)cn1` [Example 67, (R)—N-(5-(3-(quinazolin-2-ylamino)pyrrolidine-1-carbonyl)pyridin-2-yl)acrylamide] belongs 0.1 to 1 µM.
Consider `C=CC(=O)Nc1ccc(C(=O)N2CC[C@@H](Nc3ncc4cc(F)ccc4n3)C2)cc1F` [Example 69, (R)—N-(2-fluoro-4-(3-((6-fluoroquinazolin-2-yl)amino)pyrrolidine-1-carbonyl)phenyl)acrylamide], for which the figures for the IC50 against CDK12 wt/CycK and at CDK2/CycA2 were not above 0.1 µM and 1 to 10 µM, respectively.
In the case of `C#CC(=O)Nc1ccc(C(=O)N2CC[C@@H](Nc3ncc4ccccc4n3)C2)cc1` [Example 70, (R)—N-(4-(3-(quinazolin-2-ylamino)pyrrolidine-1-carbonyl)phenyl)propiolamide], the results for the IC50 against CDK12 wt/CycK and at CDK2/CycA2 were not above 0.1 µM and 0.1 to 1 µM, respectively.
In turn, `C=CC(=O)Nc1ccc(C(=O)N2CC[C@@H](Nc3ncc4ccccc4n3)C2)cc1OC` [Example 71, (R)—N-(2-methoxy-4-(3-(quinazolin-2-ylamino)pyrrolidine-1-carbonyl)phenyl)acrylamide] returned a half-maximal inhibitory concentration (IC50) on CDK12 wt/CycK not above 0.1 µM.
Still for that read-out and setting: next, `C=CC(=O)Nc1ccc(C(=O)N2CC[C@@H](Nc3ncc4ccccc4n3)C2)c(OC)c1` [Example 73, (R)—N-(3-methoxy-4-(3-(quinazolin-2-ylamino)pyrrolidine-1-carbonyl)phenyl)acrylamide]: 0.1 to 1 µM.
`C=CC(=O)N1CCCc2cc(C(=O)N3CC[C@@H](Nc4ncc5ccccc5n4)C3)ccc21` [Example 79, (R)-1-(6-(3-(quinazolin-2-ylamino)pyrrolidine-1-carbonyl)-3,4-dihydroquinolin-1(2H)-yl)prop-2-en-1-one]: the IC50 against CDK12 wt/CycK was not above 0.1 µM; against CDK2/CycA2, 1 to 10 µM.

The values are drawn from patent US11447493B2 (Kinnate Biopharma Inc., priority 2018, dated 2022).
